Laboratory results as given in patent publication US20110178015A1, “METHODS OF TREATMENT USING BIASED LIGANDS FOR RECEPTORS SUCH AS THE PTH RECEPTOR” (priority 2007, published 2011).
“Also recorded” adds a separate entry of the source.

How the values were obtained:
ERK1/2 = ERK1/2 MAP kinase activation (phosphorylation) in primary osteoblasts; type: cell-based, mice; conditions: 5 min, 100 nM PTH(1-34) or 1 μM PTH-βarr; for ERK1/2 activation: β-arrestin 2−/− POB; for ERK1/2 phosphorylation: WT POB
Procedure: FIG. 2 PTH-βarr stimulates β-arrestin mediated ERK1/2 activation. PTH-βarr stimulated ERK1/2 activation, was assessed in POBs isolated from β-arrestin 2−/− and WT C57BL/6 mice. POBs were treated with 100 nM PTH(1-34) (PTH) or 1 μM PTH-βarr for 5 min. […] The effect of PTH-barr stimulation on ERK1/2 activation in the WT obs was absent in the β-arrestin 2−/− obs. Values presented are the fold ERK1/2 phosphorylation over non-stimulated controls. Data represent the mean±SEM from four independent experiments. (**, P<0.01 compared with the non-stimulated WT POBs; ††, P<0.01 compared with the non-stimulated β-arrestin 2−/− POBs).
PTH(1-34) and PTH-βarr stimulated ERK1/2 MAP kinase activation was assessed in WT and β-arrestin 2−/− POB after treatment for 5 min with 100 nM PTH(1-34) or 1 μM PTH-βarr (FIG. 1b).

[1] = system: osteocalcin, RANKL and OPG gene expression; test: Calvarial gene expression of bone regulatory proteins by quantitative RT-PCR; type: in vivo, mice
Procedure: FIG. 6 Distinct β-arrestin- and G protein-dependent Pathways Contribute to PTH Receptor-stimulated Gene Expression of Bone Regulatory Proteins. To determine the contributions of β-arrestin mediated signaling, to PTH receptor stimulated transcription of bone regulatory proteins, RNA was isolated from the calvaria of WT and β-arrestin 2−/− mice treated with vehicle, PTH(1-34) (PTH), or PTH-βarr. Gene expression was analyzed by quantitative RT-PCR. (a) Consistent with bone formation PTH and PTH-βarr increased osteocalcin expression in WT calvaria. […] (b) and (c). […] Data represent the mean±SEM from six independent experiments. (***, P<0.001; **, P<0.01; *, P<0.05; compared with vehicle treated WT mice; †††, P<0.001; †, P<0.05 compared with vehicle treated β-arrestin 2−/− mice).
To determine the contribution of β-arrestin mediated signaling to PTH1R-stimulated transcription of bone regulatory proteins, calvarial RNA was isolated from WT and β-arrestin 2−/− mice treated with PTH(1-34), PTH-βarr or vehicle. Gene expression for osteocalcin, as well as receptor activator of nuclear factor-KB ligand (RANKL) and osteoprotegrin (OPG), which activate and inhibit osteoclastic bone resorption respectively, was analyzed by quantitative RTPCR (FIG. 6 A-C).

endogenous PTH1R [2] = target: T1, endogenous PTH1R (Mus musculus, UniProt P41593); test: cAMP accumulation in primary osteoblasts (POB); type: cell-based, mice; conditions: 100 nM PTH(1-34) or 1 μM PTH-βarr, 5 min
T1 construct: stimulation of endogenous PTH1R in primary murine osteoblasts (POB); endogenous in cells; host or cells: primary osteoblasts (POB) from WT and β-arrestin 2−/− C57BL/6 mice
T1 sequence (P41593 27-591): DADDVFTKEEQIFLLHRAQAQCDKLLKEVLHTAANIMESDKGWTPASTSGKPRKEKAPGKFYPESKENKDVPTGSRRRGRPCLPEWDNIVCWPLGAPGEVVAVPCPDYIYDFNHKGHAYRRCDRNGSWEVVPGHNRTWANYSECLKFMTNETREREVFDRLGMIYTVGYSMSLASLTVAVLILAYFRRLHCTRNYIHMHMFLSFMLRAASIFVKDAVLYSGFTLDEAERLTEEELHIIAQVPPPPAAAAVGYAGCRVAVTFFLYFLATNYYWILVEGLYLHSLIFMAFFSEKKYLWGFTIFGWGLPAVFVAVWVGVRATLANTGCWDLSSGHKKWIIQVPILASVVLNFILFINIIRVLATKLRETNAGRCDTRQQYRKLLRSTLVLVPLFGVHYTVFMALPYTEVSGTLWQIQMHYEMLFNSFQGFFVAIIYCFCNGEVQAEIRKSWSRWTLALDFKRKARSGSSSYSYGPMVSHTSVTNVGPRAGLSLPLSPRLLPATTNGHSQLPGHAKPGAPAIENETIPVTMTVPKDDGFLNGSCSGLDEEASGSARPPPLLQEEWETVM
Procedure: FIG. 1. […] Cells were treated with 100 nM PTH(1-34) (PTH) or 1 μM PTH-βarr. […] Data correspond to the mean±SEM from four independent experiments. (***, P<0.001 compared with the nonstimulated WT POB; †††, P<0.001; ††, P<0.01 compared with the non-stimulated β-arrestin 2−/− POBs).
The increased basal cAMP in the β-arrestin cells is likely due to the loss of β-arrestin mediated desensitization of PTH1R and/or other Gs coupled 7TMRs.
There was no significant difference in cAMP generated between WT and β-arrestin 2−/−POB at 5 min.

[3] = system: WT and β-arrestin 2−/− mice; test: Serum osteocalcin, marker of bone formation; type: in vivo; conditions: 4 weeks of treatment
Procedure: FIG. 5. PTH-βarr increases serum osteocalcin and has no effect on urine Deoxypyridinoline (DPD) excretion. (a) Serum osteocalcin, a biochemical marker of bone formation was measured in WT and β-arrestin 2−/− mice after 4 weeks of treatment with vehicle, PTH (1-34) (PTH) or PTH-βarr. […] There was no increase in serum osteocalcin in the arrestin 2−/− mice treated with PTH-βarr compared to placebo. […] (b) 24 hour urine DPD, a marker of bone degradation and bone resorption, was also measured in WT and β-arrestin 2−/− mice after 4 weeks of treatment with vehicle, PTH or PTH-βarr. […] Data represent the mean±SEM of at least 7 independent mouse measurements. (***, P<0.001; *, P<0.05; compared with vehicle treated WT mice; †††, P<0.001; ††, P<0.01 compared with vehicle treated β-arrestin 2−/− mice).
To delineate the cellular mechanisms contributing to the metabolic effects of PTH(1-34) and PTH-βarr administration in WT and β-arrestin 2−/− mice, serum and urine markers of bone turnover were assessed.

endogenous PTH1R [4] = target: T1, endogenous PTH1R; test: Gq/11 PI hydrolysis in POB cultures; type: cell-based, mice; conditions: data not shown

## (D-Trp12, Tyr34)-PTH(7-34) [PTH-βarr]
ERK1/2
  ERK1/2 activation: failed to activate ERK1/2
ERK1/2; listed as PTH-barr
  ERK1/2 activation: absent
[1]; WT mice, calvaria
  OPG mRNA expression vs vehicle: did not affect
  RANKL mRNA expression vs vehicle: did not affect
  osteocalcin mRNA expression vs vehicle: increases
[1]; WT mice; calvaria; Tyr34)-PTH(7-34)
  OPG mRNA expression vs vehicle: significantly increases
[1]; β-arrestin 2−/− mice, calvaria
  OPG mRNA expression vs vehicle: Neither PTH nor PTH-βarr treatment had a significant effect
  RANKL mRNA expression vs vehicle: Neither PTH nor PTH-βarr treatment had a significant effect
  osteocalcin mRNA expression vs vehicle: decrease
Endogenous PTH1R [2]; WT POB
  cAMP accumulation: unable to stimulate cAMP; also recorded: did not increase cAMP
Endogenous PTH1R [2]; β-arrestin 2−/− POB
  cAMP accumulation: decreases basal cAMP levels; also recorded: significantly decreased
[3]; WT mice
  serum osteocalcin vs vehicle: significantly increased
[3]; β-arrestin 2−/− mice
  serum osteocalcin vs vehicle: no increase; also recorded: no significant change
Endogenous PTH1R [4]
  Gq/11 PI hydrolysis: did not activate

## PTH(1-34) [reference compound]
ERK1/2
  ERK1/2 phosphorylation: approximately 3 fold over basal
  ERK1/2 activation: responded to PTH(1-34) much as WT POB
ERK1/2; listed as PTH
  ERK1/2 phosphorylation: robustly activated
[1]; WT mice, calvaria
  OPG mRNA expression vs vehicle: increases
  RANKL mRNA expression vs vehicle: increases
  osteocalcin mRNA expression vs vehicle: increases
[1]; WT mice, calvaria, listed as PTH
  osteocalcin mRNA expression vs vehicle: increased
[1]; β-arrestin 2−/− mice, calvaria
  OPG mRNA expression vs vehicle: Neither PTH nor PTH-βarr treatment had a significant effect
  RANKL mRNA expression vs vehicle: Neither PTH nor PTH-βarr treatment had a significant effect
[1]; β-arrestin 2−/− mice, calvaria, listed as PTH
  osteocalcin mRNA expression vs vehicle: significant increase; also recorded: significantly increased
Endogenous PTH1R [2]; WT POB
  cAMP accumulation: robust increases
Endogenous PTH1R [2]; WT POB, listed as PTH
  cAMP accumulation: robust increase
Endogenous PTH1R [2]; β-arrestin 2−/− POB
  cAMP accumulation: robust increases
Endogenous PTH1R [2]; β-arrestin 2−/− POB, listed as PTH
  cAMP accumulation: robust increase
[3]; WT mice
  serum osteocalcin vs vehicle: significantly increased
[3]; WT mice, listed as PTH
  serum osteocalcin vs vehicle: significantly increase
[3]; β-arrestin 2−/− mice
  serum osteocalcin vs vehicle: increased
Endogenous PTH1R [4]
  Gq/11 PI hydrolysis: did not activate
